Experimental data: US20160303108A1, “NOVEL DOSAGE FORM AND FORMULATION OF ABEDITEROL” (Almirall, S.A., priority 2012, published 2016)
Marks after values point to notes of the source that are not given here. Blank lines part the entries; values can stand above or below the molecule they belong to.

How the values were obtained:
[1] = tested on: patients with stable moderate to severe chronic obstructive pulmonary disease (COPD); test: Clinical phase IIa single-dose cross-over study in stable moderate to severe COPD (trough FEV1, safety, tolerability); type: in vivo, human; details: for Change from baseline in morning pre-dose (trough) FEV1 at Day 2: 23-24 h after administration
Source text: (§1) Clinical phase IIa study: A randomised, single dose, double-blind, double-dummy, 6 way complete cross-over, placebo and active comparator controlled, assesses the efficacy, safety and tolerability of single doses of abediterol administered once daily by inhalation compared to placebo and active comparator in patients with stable moderate to severe chronic obstructive pulmonary disease (COPD).
(§2) Methods: 63 patients (men and women aged ≧40 years) with a clinical diagnosis of stable moderate to severe COPD, as defined by the 2011 GOLD guideline, with no signs of an exacerbation within 6 weeks prior to the screening visit and with a FEV1 30-80% of the predicted normal values (according to Quanjer et al. 1993) were randomised to treatment sequences comprising a single-dose administration of abediterol (at a metered nominal dose of 0.625, 2.5, 5 and 10 micrograms in the Genuair® device), one administration of indacaterol (at a metered nominal dose of 150 micrograms once daily in the Onbrez Breezhaler® device) and placebo (administered in both Genuair® and Onbrez Breezhaler®). The washout period between each administration was at least 7 days. Lung function measurements included (by spirometry) trough FEV1. Trough FEV1 is defined as a main FEV1 value between 23 and 24 h after Investigational Medicinal Product (IMP) administration.

[2] = tested on: persistent asthmatic patients; test: Clinical phase IIa single-dose cross-over study in persistent asthma (FEV1, safety, tolerability); type: in vivo, human
Source text: as §1, with “persistent asthmatic patients.” for “patients with stable moderate to severe chronic obstructive pulmonary disease (COPD).”
(§3) Methods: 62 patients (Adult men and women aged 18-70 years) with a clinical diagnosis of persistent asthma, as defined by the 2011 GINA guideline, for at least 6 months prior to screening and with a FEV1 61-85% of the predicted normal values (according to Quanjer et al. 1993) were randomised to treatment sequences comprising a single-dose administration of abediterol (at metered nominal doses of 0.313, 0.625, 1.25 and 2.5 micrograms in the Genuair® device), one administration of salbutamol (at a metered nominal dose of 400 micrograms (100 micrograms×4 puffs) in the Ventolin Evohaler® device) and placebo (administered in both Genuair® and Ventolin Evohaler®) administered all of them by means of […]. The washout period between each administration was at least 7 days.

[3] = tested on: asthmatic and COPD patients; test: Overall conclusion of the phase IIa studies in asthmatic and COPD patients; type: in vivo, human
Source text: as §3, §2

[4] = Measurement of the fine particle dose (FPD<5 μm, Anderson Cascade Impactor, Genuair inhaler); type: physicochemical
Procedure: The test on the aerodynamic assessment of the fine particles (FPD<5 μm) of the inhalation powder composition is carried out in combination with the Genuair® inhaler. The Fine Particle Fraction of abediterol free base was calculated on basis of the principles of the aerodynamic assessment of fine particles according to the Current European pharmacopoeia (Ph. Eur. Chapter 2.9.18) and USP <601> by the aid of aerodynamic impactor analyses using a modified Anderson Cascade Impactor (ACI), 60 L/min-configuration including pre-separator, stage −1, −0, and stage 1-7 (filter stage). The content of the active ingredient on each stage of the impactor is determined my means of HPLC.
The fine particle dose (FPD<5 μm) is calculated based on Ph. Eur. Chapter 2.9.18 and USP <601> by point to point interpolation per dosage. Linear point to point interpolation is done between the stages with a corresponding effective cut-off diameter which enclose the 5 μm mark.
To obtain the Fine Particle Dose, the cumulative percent value (y-value) at which the line of data plot crosses 5 μm mark is determined. […]
FPD [μg]=yFPD·F/100% • FPD=Fine particle dose<5 μm of the active ingredient per dosage [μg]. • yFPD=y-value of cumulative percentage of mass at a particle size of 5 μm evaluated by linear point to point interpolation [%]. • F=sum of mass on stage −1-stage 7 (filter) per dosage [μg].

[5] = Measurement of the delivered dose (collection tube, Genuair inhaler, HPLC); type: physicochemical
Procedure: The measurement of the delivered dose is carried out based on Ph. Eur. Chapter 2.9.18 and USP <601> using “collection tube” apparatus (CT). For this, the Genuair® inhaler is fitted to the Collection Tube via an adapter, the dosage key of the Genuair® inhaler is pressed and released and then 2 L or 4 L of air are sucked through the inhaler and the Collection Tube (the inspiratory flow rate through the inhaler was approx. 65 L/min at a pressure drop of 4 KPa). Subsequently, the inhalation powder delivered to the Collection Tube is extracted with solvent and analyzed using High Performance Liquid chromatography equipment (HPLC).

[6] = nominal dose of 1.25 micrograms abediterol free base
[7] = nominal dose of 2.5 micrograms abediterol free base

Compound: CCc1cc2c(cc1CC)CC(NC[C@H](O)c1ccc(O)c3[nH]c(=O)ccc13)C2 [Indacaterol, reference compound]
Change from baseline in morning pre-dose (trough) FEV1 at Day 2 ([1]; 150 μg, Onbrez Breezhaler, n = 68): 76* ml

Fine particle dose (FPD<5 μm) per dose [4, 6]: about 0.45 micrograms
Fine particle dose (FPD<5 μm) per dose [4, 7]: about 1.0 micrograms
Delivered dose per dose [5, 6]: about 1.1 micrograms
Delivered dose per dose [5, 7]: about 2.3 micrograms
Compound: O=c1ccc2c([C@@H](O)CNCCCCCCOCC(F)(F)c3ccccc3)ccc(O)c2[nH]1 [Abediterol, 5-(2-{[6-(2,2-difluoro-2-phenylethoxy)hexyl]amino}-1(R)-hydroxyethyl)-8-hydroxyquinolin-2(1H)-one]
Tolerability (ECG, laboratory parameters, adverse events) ([2]; asthma patients, doses 0.313-2.5 micrograms, no dose-dependent effect): well tolerated
Bronchodilatory effect compared with salbutamol ([2]; doses of 1.25 and 2.5 micrograms vs salbutamol 400 micrograms): increased bronchodilatory effect
Time to peak FEV1 at day 1 ([2]; post-dose, all abediterol doses (0.313-2.5 micrograms)): ≤ 4 h
Change from baseline in peak FEV1 on Day 1 ([2]; single inhaled dose 0.313 μg, Genuair, n = 60): 477* ml
Change from baseline in peak FEV1 on Day 1 ([2]; single inhaled dose 0.625 μg, Genuair, n = 60): 524* ml
Change from baseline in peak FEV1 on Day 1 ([2]; single inhaled dose 1.25 μg, Genuair, n = 60): 573** ml
Change from baseline in peak FEV1 on Day 1 ([2]; single inhaled dose 2.5 μg, Genuair, n = 61): 608*** ml
Tolerability (ECG, laboratory parameters, adverse events) ([1]; COPD patients, doses 0.625-10 micrograms, no dose-dependent effect): well tolerated
Trough FEV1 compared with indacaterol 150 micrograms ([1]; doses of 2.5, 5 and 10 micrograms, statistically significant): greater trough FEV1
Minimum therapeutic effective dose producing higher bronchodilatory effects when compared with indacaterol 150 micrograms ([1]; metered nominal dose, Genuair): 2.5 micrograms
Change from baseline in morning pre-dose (trough) FEV1 at Day 2 ([1]; single inhaled dose 0.625 μg, Genuair, n = 67): 66* ml
Change from baseline in morning pre-dose (trough) FEV1 at Day 2 ([1]; single inhaled dose 2.5 μg, Genuair, n = 66): 168** ml
Change from baseline in morning pre-dose (trough) FEV1 at Day 2 ([1]; single inhaled dose 5 μg, Genuair): 198** ml
Change from baseline in morning pre-dose (trough) FEV1 at Day 2 ([1]; single inhaled dose 10 μg, Genuair): 223*** ml
Duration of bronchodilation effect ([3]; all dose levels tested): more than 24 h
Changes on safety outcomes (HR, QTcF, glucose and potassium) ([3]; all doses tested): no overall clinically relevant changes
Minimum dose having similar therapeutic effect to salbutamol and indacaterol ([3]; metered nominal dose, Genuair): 0.625 micrograms

Compound: CC(C)(C)NCC(O)c1ccc(O)c(CO)c1 (centres unmarked) [Salbutamol, reference compound]
Change from baseline in peak FEV1 on Day 1 ([2]; 400 μg (100 micrograms×4 puffs), Ventolin Evohaler, n = 58): 555** ml
